Legend:
melanoma cells A375 = assay: Cell killing (CCK8) of Cobimetinib against A375 after FAK silencing; format: cell-based; conditions: with FAK silencing (FAK siRNA) vs control siRNA, 72 h
Experimental: In the in vitro assay, different concentrations of Cobimetinib were given under the condition of silencing the FAK gene. In A375 cells, the cell killing curve was obtained and the IC50 value was determined. The cytotoxic effect of Cobimetinib in the control group and the FAK siRNA group was compared to explore the effect of the FAK target on the cytotoxicity of Cobimetinib. The cell killing curve of Cobimetinib at different concentrations in melanoma cells A375 under the condition of FAK gene silencing was detected in the assay and the IC50 value was determined. A 96-well cell plate was seeded with 5000 A375 cells/well, and two groups were transfected with control siRNA or FAK siRNA respectively. Cobimetinib was added 24 hours after the transfection. The highest concentration was 1 μM. A total of 6 concentrations were set for 3-fold gradient dilution. The lowest concentration of Cobimetinib was 4.115 nM. After the drug and cells were incubated for 72 hours, 10 μl CCK8 solution was added to each well and incubated at 37 degrees in a 5% carbon dioxide incubator for 2 hours. A microplate reader with the absorbance wavelength set to 450 nm was used for reading. The values read were compared to the DMSO control group and plotted using Graphpad 8.0.

[1] = tested on: endoplasmic reticulum stress-related proteins GRP78 and Phospho-eIF2α (Ser51) in A375 cells; assay: Endoplasmic reticulum stress protein expression in A375 after FAK silencing plus Cobimetinib; format: cell-based; conditions: FAK siRNA 50 nM, then Cobimetinib 6 hours
Experimental: A375 cells were transfected with control siRNA or FAK siRNA at a final concentration of 50 nM. After 24 hours of transfection, different concentrations of Cobimetinib were given for 6 hours. The protein expression levels of FAK and endoplasmic reticulum stress-related proteins GRP78 and Phospho-eIF2α (phosphorylated-Phospho-eIF2α) (Ser51) were detected.

[2] = tested on: Calreticulin (ICD target) in A375 cells; assay: Calreticulin immunofluorescence in A375 after FAK silencing plus Cobimetinib; format: cell-based; conditions: FAK siRNA 50 nM, then 10 nM Cobimetinib 48 hours
Experimental: A375 cells were transfected with control siRNA or FAK siRNA at a final concentration of 50 nM. After 24 hours, A375 cells were treated with 10 nM Cobimetinib for 48 hours and then calreticulin was detected by immunofluorescence.

[3] = tested on: CT-26 mouse colorectal cancer cell subcutaneous allograft tumor; assay: In vivo antitumor efficacy, CT-26 subcutaneous allograft tumor model (Example 3); set-up: species or system BALB/c mice; TGI (tumor growth inhibition rate): dose or concentration left out as unconfirmed; conditions: for TGI (tumor growth inhibition rate) / Tumor volume on day 15: 15th day after group administration; for TGI (tumor growth inhibition rate): vs control group; for Tumor volume on day 15: Cobimetinib 7.5 mg/kg ip TIW, IN10018 12.5 mg/kg po QD, PDL1 antibody 5 mg/kg ip BIW, mean ± standard error
Description: Mice: Female BALB/c mice aged 6-8 weeks were purchased from Beijing Weitong Lihua Laboratory Animal Co., Ltd. The assay began after the animals arrived and were adapted to the experimental environment. The animals were kept in IVC (independent ventilation system) cages (6 per cage) in an SPF-level animal room. All cages, bedding and drinking water must be sterilized before use. All experimenters should wear protective clothing and latex gloves when operating in the animal room. The animal information cards for each cage should indicate the number of animals in the cage, gender, strain, receipt date, dosing regimen, assay number, group and start date of the assay. Cages, feed and drinking water were changed twice a week. The breeding environment and lighting conditions are as follows:
5% CO2 incubator. Two to three times a week, routine digestion and subculture were performed with trypsin-EDTA. When the cells were in the exponential growth phase and the saturation was 80%-90%, the cells were harvested, counted, and inoculated.
0.1 mL of cell suspension containing 3×10^5 cells was subcutaneously inoculated on the right back of each mouse. When the tumor volume reached ˜58 mm^3 (10 days after cell inoculation), the mice were randomly divided into groups for drug administration according to the tumor volume.
The diameter of tumor was measured with vernier caliper, 3 times a week. The formula for calculating the tumor volume is: V=0.5×a×b^2, where a and b represent the long and short diameters of the tumor respectively.
Animals were considered dead when they died naturally or when the tumor volume was greater than 2500 mm^3. The survival rate and life cycle of the animals after administration were calculated based on this.
Statistical analysis was performed based on tumor volume and tumor weight at the end of the trial using Prism Graphpad software. Comparisons between multiple groups were analyzed using the Two-way ANOVA test, and P<0.05 was considered as having significant differences.
The survival rate of animals was analyzed using the Gehan-Breslow-Wilcoxon test, and P<0.05 was considered as having significant difference.

[4] = tested on: colon cancer CT-26 cell line; assay: In vitro efficacy of IN10018 and HL-085 in CT26 cells (microscopy, flow cytometry); format: cell-based, mouse; conditions: 48 hours, IN10018 5 μM, HL-085 1 μM
Experimental: CT26 cells were cultured with RPMI 1640 (Shanghai Yuanpei, Cat No.: L210KJ, Lot No.: F210916)+10% FBS (Gibco, Cat No.: 10099-141c, Lot No.: 2158737cp) and passaged twice. When the cells were in good condition, the culture plates were placed in 24-well plates. After 24 hours of cell spreading, four groups were set up. The first group was the control group, to which culture medium was added, the second group was IN10018 at a concentration of 5 μM, the third group was HL-085 at a concentration of 1 μM, and the fourth group was IN10018 (5 μM) combined with HL-085 (1 μM). The drugs were mixed and cultured at 37° C. in a 5% CO2 incubator for 48 hours.
After 48 hours of drug action, cells were observed under a microscope and photographed to confirm the cell killing effect. Then the cells were collected for flow analysis, and the cells were washed twice with flow buffer (PBS+2% FBS) and 0.5 μl AF647. Anti-calreticulin antibody (abeam) was added to each well and mixed. The mixture was incubated at 4° C. in the dark, flow buffer was added after 20 min of incubation, the annexin staining kit (Beyotime) was used and 195 μl […] was added. After pipetting and mixing with the cells, 5 μl Annexin-V-FITC antibody was added and gently mixed. Finally, 10 μl PI dye was added and mixed. […]

O=C(c1ccc(F)c(F)c1Nc1ccc(I)cc1F)N1CC(O)([C@@H]2CCCCN2)C1 [Cobimetinib]
cell killing effect of cobimetinib on melanoma cells A375 (melanoma cells A375): significantly enhance
endoplasmic reticulum stress of A375 [1]: Significantly Up-Regulated
exposure and release of the DAMPs marker calreticulin [2]: significantly enhance
TGI (tumor growth inhibition rate) [3]: 59.2%
Tumor volume on day 15 [3]: 1261.3±565.4 mm^3
Survival rate on Day 31 ([3]; 31st day after group administration, death = natural death or tumor volume > 2500 mm^3, Cobimetinib 7.5, IN10018 12.5, PDL1 antibody 5 mg/kg): 16.7%
Median survival time ([3]; up to the 31st day after group administration, Cobimetinib 7.5, IN10018 12.5, PDL1 antibody 5 mg/kg): 22 days

O=C(NOCCO)c1cc2scnc2c(F)c1Nc1ccc(I)cc1F [HL-085]
cell status / cell killing effect observed under a microscope [4]: poor

COc1cc(C(=O)NC2CCN(C)CC2)c(F)cc1Nc1ncc(C(F)(F)F)c(Oc2cccc3c2C(=O)N(C)C3)n1 [IN10018]
TGI (tumor growth inhibition rate) [3]: 19.9%
Tumor volume on day 15 [3]: 2418.8±436.5 mm^3
cell status / cell killing effect observed under a microscope [4]: better

Source: US20250099450A1, “PHARMACEUTICAL COMBINATION FOR TREATING TUMORS AND USE THEREOF” (INXMED (NANJING) CO., LTD, priority 2022, published 2025)
